Assay results taken from ChEMBL document CHEMBL5257046, “Characterization of Serrulatane Diterpenoids in Eremophila phyllopoda subsp. phyllopoda by Triple High-Resolution α-Glucosidase/PTP1B/Radical Scavenging Profiling, NMR Spectroscopy, DFT-GIAO NMR, and Electronic Circular Dichroism Calculations” (J Nat Prod, 2023).

biological target: Alpha glucosidase (Homo sapiens, UniProt O43451+P10253+P14410+Q2M2H8); assay: Inhibition of alpha-glucosidase (unknown origin) using p-nitrophenyl-glycoside as substrate preincubated for 10 mins followed by substrate addition by microplate reader analysis; type: protein assay

Row | IC50 [µM] | Structure (SMILES)
1 | 64.2 | CC(C)=CCC[C@H](C)[C@@H]1CC[C@@H](CO)c2c(O)cc(C)cc21
2 | 28.4 | CC(C)=CCC[C@H](CO)[C@@H]1CC[C@@H](CO)c2c(O)cc(C)cc21

biological target: T1, Tyrosine-protein phosphatase non-receptor type 1 (Homo sapiens, UniProt P18031); assay: Inhibition of PTP1B (unknown origin) using pNPP as substrate preincubated for 10 mins followed by substrate addition and measured every 30 sec for 10 mins by microplate photometer analysis
T1 sequence (P18031 whole entry): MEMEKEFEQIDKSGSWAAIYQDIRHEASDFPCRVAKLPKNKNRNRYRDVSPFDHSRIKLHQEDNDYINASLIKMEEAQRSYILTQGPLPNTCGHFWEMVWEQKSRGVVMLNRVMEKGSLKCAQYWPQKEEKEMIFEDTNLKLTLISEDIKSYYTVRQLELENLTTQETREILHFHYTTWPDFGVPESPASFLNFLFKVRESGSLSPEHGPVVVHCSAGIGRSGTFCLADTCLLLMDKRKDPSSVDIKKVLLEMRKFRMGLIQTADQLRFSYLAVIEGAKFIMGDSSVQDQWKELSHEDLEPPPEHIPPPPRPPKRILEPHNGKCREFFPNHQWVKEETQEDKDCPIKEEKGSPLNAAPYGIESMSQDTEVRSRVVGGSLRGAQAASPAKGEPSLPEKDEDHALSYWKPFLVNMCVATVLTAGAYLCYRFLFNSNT

Row | Structure (SMILES) | IC50 [µM]
3 | CC(C)=CCC[C@H](C)[C@@H]1CC[C@@H](CO)c2c(O)cc(C)cc21 | 20
4 | CC(C)=CCC[C@H](C)[C@H]1c2cc(C)cc(O)c2[C@H](C)C[C@H]1O | 105

The remaining lines, values ahead:

Row | IC50 [µM] | Structure (SMILES)
5 | 16.6 | CC(C)=CCC[C@H](C)c1cccc2c(O)cc(C)cc12
6 | 14.4 | CCCCCCCCCCCCCCCC(=O)C1=C(O)C(CO)OC1=O (configuration not stated)
7 | 80 | CC(C)=CCC[C@H](C)[C@@H]1C[C@H](O)[C@@H](C)c2c(O)cc(C)cc21
